# Experimental data as given in patent publication US20220213049A1, “S[…]-4-ONE FOR THE TREATMENT AND PROPHYLAXIS OF HEPATITIS B VIRUS INFECTION” (priority 2019, published 2022).
# Tested on: HBeAg (surrogate marker for cccDNA) in HepDES19 cells
# Assay: Engineered HepDES19 primary screen assay (HBeAg ELISA)
# Type: cell-based, HBV
# Conditions: Hepatitis B virus, HepDES19, 120 h, read-out: IC50 (HBeAg level, HepDES19 primary screen assay)
# Excerpt: The assay was employed to screen for novel cccDNA inhibitors. HepDES19 is a cccDNA-producing cell line. In this cell line, HBeAg in the cell culture supernatant as surrogate marker, as HBeAg production depends on cccDNA level and activity. HepDES19 is an engineered cell line which contains a 1.1 unit length HBV genome, and pgRNA transcription from the transgene is controlled by Tetracycline (Tet). In the absence of Tet, pgRNA transcription will be induced, but HBV e antigen (HBeAg) could not be produced from this pgRNA due to very short leader sequence before the HBeAg start codon and the start codon is disrupted. Only after cccDNA is formed, the missing leader sequence and start codon mutation would be restored from the 3′-terminal redundancy of pgRNA, and then HBeAg could be synthesized. Therefore, HBeAg could be used as a surrogate marker for cccDNA (Zhou, T. et al., Antiviral Res. (2006), 72(2), 116-124; Guo, H. et al., J. Virol. (2007), 81(22), 12472-12484).
# HepDES19 cells were seeded at 2×10^6 cells per T150 flask and cultured with the culture medium (Dulbecco's Modified Eagle Medium: Nutrient Mixture F-12 [DMEM-F12, Gibco Cat. 11320-82], 10% Fetal Bovine Serum [FBS, Clontech Cat. 631101], 0.1 mM Non-Essential Amino Acids Solution [NEAA, Gibco Cat. 11140-050], 50 μg/mL Penicillin-Streptomycin [PS, Invitrogen Cat. 15140-163], 500 μg/mL Geneticin [G418, Invitrogen Cat. 10131-027]) containing 3 μg/mL Tet (Sigma, Cat. 87128) for 5 days. Cells were then seeded at 4×10^6 cells per T150 in the same culture medium as described above in the absence of Tet for 8 days. Cells were then harvested and frozen at density of 2×10^6 cells per ML. For compound testing, the frozen cells were thawed and seeded into 96-well plates at a density of 6×10^4 cells per well. At 24 hours after seeding, half log serial dilutions of compounds made with Dimethyl sulfoxide (DMSO, Sigma, Cat. D2650) were further diluted with the same culture medium as described above before they were added to the cells to reach desired final compound concentrations and 1% DMSO concentration. Plates were then incubated at 37° C. for another 5 days before measurement of HBeAg level and cell viability. Intracellular HBeAg level were measured with enzyme-linked immunosorbent assay (ELISA) kit (Shanghai Kehua Diagnostic Medical Products Co., Ltd). Cell viability was assessed using Cell Counting Kit-8 (DonJindo, Cat. CK04-20). IC50 values were derived from the dose-response curve using 4 parameter logistic curve fit method.
# The compounds of the present invention were tested for their capacity to inhibit extracellular HBeAg level as described herein.
row,Compound,IC50
1,"COc1cc(Br)c(OCCC(=O)NS(=O)(=O)C2CC2)cc1-c1cc(=O)c2cccc(Cl)c2o1 [Example 3, 3-[2-Bromo-5-(8-chloro-4-oxo-chromen-2-yl)-4-methoxy-phenoxy]-N-cyclopropylsulfonyl-propanamide]",580 nM
2,"COc1cc(Br)c(OCC(=O)O)cc1-c1cc(=O)c2cccc(Cl)c2o1 [Example 4, 2-[2-Bromo-5-(8-chloro-4-oxo-chromen-2-yl)-4-methoxy-phenoxy]acetic acid]",1960 nM
3,"COc1cc(Br)c(OCCCOCC(=O)O)cc1-c1cc(=O)c2cccc(Cl)c2o1 [Example 6, 2-[3-[2-Bromo-5-(8-chloro-4-oxo-chromen-2-yl)-4-methoxy-phenoxy]propoxy]acetic acid]",1660 nM
4,"COc1cc(Cl)c(OC2CC(C(=O)O)C2)cc1-c1cc(=O)c2cccc(Cl)c2o1 (stereo not drawn) [Example 7, 3-[2-Chloro-5-(8-chloro-4-oxo-chromen-2-yl)-4-methoxy-phenoxy]cyclobutanecarboxylic acid]",4510 nM
5,"COc1cc(C)c(OCCOC2CC(C(=O)O)C2)cc1-c1cc(=O)c2cccc(Cl)c2o1 (stereo not drawn) [Example 9, 3-[2-[5-(8-Chloro-4-oxo-chromen-2-yl)-4-methoxy-2-methyl-phenoxy]ethoxy]cyclobutanecarboxylic acid]",5200 nM
6,"COc1cc(C)c(OCCC(=O)O)cc1-c1cc(=O)c2cccc(Cl)c2o1 [Example 10, 3-[5-(8-Chloro-4-oxo-chromen-2-yl)-4-methoxy-2-methyl-phenoxy]propanoic acid]",1540 nM
7,"COc1cc(OC)c(-c2cc(=O)c3cccc(Cl)c3o2)cc1OC1CC(C(=O)O)C1 (stereo not drawn) [Example 12, 3-[5-(8-Chloro-4-oxo-chromen-2-yl)-2,4-dimethoxy-phenoxy]cyclobutanecarboxylic acid]",620 nM
8,"COc1cc(OC)c(-c2cc(=O)c3cccc(Cl)c3o2)cc1OCCOC1CC(C(=O)O)C1 (stereo not drawn) [Example 13, 3-[2-[5-(8-Chloro-4-oxo-chromen-2-yl)-2,4-dimethoxy-phenoxy]ethoxy]cyclobutanecarboxylic acid]",190 nM
9,"Cc1ccc(-c2cc(=O)c3cccc(Cl)c3o2)cc1OCC(=O)O [Example 14, 2-[5-(8-Chloro-4-oxo-chromen-2-yl)-2-methyl-phenoxy]acetic acid]",6320 nM
10,"Cc1ccc(-c2cc(=O)c3cccc(Cl)c3o2)cc1O[C@H]1C[C@H](C(=O)O)C1 [Example 16, trans-3-[5-(8-chloro-4-oxo-chromen-2-yl)-2-methyl-phenoxy]cyclobutanecarboxylic acid]",6360 nM
11,"COc1ccc(-c2cc(=O)c3cccc(Cl)c3o2)cc1OC1CC(C(=O)O)C1 (stereo not drawn) [Example 17, 3-[5-(8-Chloro-4-oxo-chromen-2-yl)-2-methoxy-phenoxy]cyclobutanecarboxylic acid]",720 nM
12,"COc1ccc(-c2cc(=O)c3cccc(Cl)c3o2)cc1OCCOC1CC(C(=O)O)C1 (stereo not drawn) [Example 18, 3-[2-[5-(8-Chloro-4-oxo-chromen-2-yl)-2-methoxy-phenoxy]ethoxy]cyclobutanecarboxylic acid]",520 nM
13,"COc1ccc(-c2cc(=O)c3cccc(Cl)c3o2)cc1OCCC(=O)O [Example 19, 3-[5-(8-Chloro-4-oxo-chromen-2-yl)-2-methoxy-phenoxy]propanoic acid]",7930 nM
14,"O=c1cc(-c2ccc(C(F)(F)F)c(O[C@H]3C[C@@H](C(=O)O)C3)c2)oc2c(Cl)cccc12 [Example 20, Cis-3-[5-(8-chloro-4-oxo-chromen-2-yl)-2-(trifluoromethyl)phenoxy]cyclobutanecarboxylic acid]",2140 nM
15,"O=c1cc(-c2ccc(C(F)(F)F)c(O[C@H]3C[C@H](C(=O)O)C3)c2)oc2c(Cl)cccc12 [Example 21, trans-3-[5-(8-chloro-4-oxo-chromen-2-yl)-2-(trifluoromethyl)phenoxy]cyclobutanecarboxylic acid]",4120 nM
16,"COc1cc(-c2cc(=O)c3cccc(Cl)c3o2)cc(O[C@H]2C[C@@H](C(=O)O)C2)c1OC [Example 23, Cis-3-[5-(8-chloro-4-oxo-chromen-2-yl)-2,3-dimethoxy-phenoxy]cyclobutanecarboxylic acid]",7360 nM
17,"COc1cc(-c2cc(=O)c3cccc(Cl)c3o2)cc(OCCO[C@H]2C[C@H](C(=O)O)C2)c1OC [Example 24, Trans-3-[2-[5-(8-chloro-4-oxo-chromen-2-yl)-2,3-dimethoxy-phenoxy]ethoxy]cyclobutanecarboxylic acid]",1460 nM

row,Compound,IC50
1,"COc1cc(-c2cc(=O)c3cccc(Cl)c3o2)cc(OCC(=O)O)c1OC [Example 25, 2-[5-(8-Chloro-4-oxo-chromen-2-yl)-2,3-dimethoxy-phenoxy]acetic acid]",7510 nM
2,"COc1cc(Br)c(-c2cc(=O)c3cccc(Cl)c3o2)cc1O[C@H]1C[C@H](C(=O)O)C1 [Example 26, Trans-3-[4-bromo-5-(8-chloro-4-oxo-chromen-2-yl)-2-methoxy-phenoxy]cyclobutanecarboxylic acid]",1070 nM
3,"COc1cc(Br)c(-c2cc(=O)c3cccc(Cl)c3o2)cc1OCCO[C@H]1C[C@H](C(=O)O)C1 [Example 27, Trans-3-[2-[4-Bromo-5-(8-chloro-4-oxo-chromen-2-yl)-2-methoxy-phenoxy]ethoxy]cyclobutanecarboxylic acid]",3240 nM
4,"COc1c(OC2CC(C(=O)O)C2)cccc1-c1cc(=O)c2cccc(Cl)c2o1 (stereo not drawn) [Example 28, 3-[3-(8-Chloro-4-oxo-chromen-2-yl)-2-methoxy-phenoxy]cyclobutanecarboxylic acid]",560 nM
5,"COc1c(OCCO[C@H]2C[C@@H](C(=O)O)C2)cccc1-c1cc(=O)c2cccc(Cl)c2o1 [Example 29, Cis-3-[2-[3-(8-chloro-4-oxo-chromen-2-yl)-2-methoxy-phenoxy]ethoxy]cyclobutanecarboxylic acid]",3240 nM
6,"COc1ccc(OC2CC(C(=O)O)C2)cc1-c1cc(=O)c2cccc(Cl)c2o1 (stereo not drawn) [Example 30, 3-[3-(8-Chloro-4-oxo-chromen-2-yl)-4-methoxy-phenoxy]cyclobutanecarboxylic acid]",7510 nM
7,"COc1ccc(OCC(=O)O)cc1-c1cc(=O)c2cccc(Cl)c2o1 [Example 32, 2-[3-(8-Chloro-4-oxo-chromen-2-yl)-4-methoxy-phenoxy]acetic acid]",7130 nM
8,"COc1ccc(OCCC(=O)O)cc1-c1cc(=O)c2cccc(Cl)c2o1 [Example 33, 3-[3-(8-Chloro-4-oxo-chromen-2-yl)-4-methoxy-phenoxy]propanoic acid]",6750 nM
9,"COc1c(-c2cc(=O)c3cccc(Cl)c3o2)ccc(Br)c1OCCO[C@H]1C[C@@H](C(=O)O)C1 [Example 34, Cis-3-[2-[6-bromo-3-(8-chloro-4-oxo-chromen-2-yl)-2-methoxy-phenoxy]ethoxy]cyclobutanecarboxylic acid]",940 nM
10,"COc1c(-c2cc(=O)c3cccc(Cl)c3o2)ccc(Cl)c1OCC(=O)O [Example 37, 2-[6-Chloro-3-(8-chloro-4-oxo-chromen-2-yl)-2-methoxy-phenoxy]acetic acid]",10100 nM
11,"COc1ccc(-c2cc(=O)c3cccc(Cl)c3o2)c(OC)c1OCC(=O)O [Example 38, 2-[3-(8-Chloro-4-oxo-chromen-2-yl)-2,6-dimethoxy-phenoxy]acetic acid]",1130 nM
12,"CCOc1cc(Br)c(OCCC(=O)O)cc1-c1cc(=O)c2cccc(Cl)c2o1 [Example 39, 3-[2-Bromo-5-(8-chloro-4-oxo-chromen-2-yl)-4-ethoxy-phenoxy]propanoic acid]",110 nM
13,"O=C(O)CCOc1cc(-c2cc(=O)c3cccc(Cl)c3o2)c(OC(F)F)cc1Br [Example 40, 3-[2-Bromo-5-(8-chloro-4-oxo-chromen-2-yl)-4-(difluoromethoxy)phenoxy]propanoic acid]",1390 nM
14,"O=C(O)CCOc1cc(-c2cc(=O)c3cccc(Cl)c3o2)c(F)cc1Br [Example 41, 3-[2-Bromo-5-(8-chloro-4-oxo-chromen-2-yl)-4-fluoro-phenoxy]propanoic acid]",133 nM
15,"O=C(O)CCOc1cc(-c2cc(=O)c3cccc(Cl)c3o2)c(OC(F)(F)F)cc1Br [Example 42, 3-[2-Bromo-5-(8-chloro-4-oxo-chromen-2-yl)-4-(trifluoromethoxy)phenoxy]propanoic acid]",2630 nM
16,"O=C(O)CCOc1cc(-c2cc(=O)c3cccc(Cl)c3o2)c(Cl)cc1Br [Example 43, 3-[2-Bromo-4-chloro-5-(8-chloro-4-oxo-chromen-2-yl)phenoxy]propanoic acid]",11700 nM
